Consider two molecules from patent EP2161259A1, “4-Haloalkyl substituted Diaminopyrimidine” (Bayer CropScience AG, priority 2008, dated 2010).

Series [1] deals with Fumonisin FB1. The experiment in a line: Production of fumonisin FB1 by Fusarium proliferatum (microtiter plate, HPLC-MS/MS). The format is cell-based. Particulars: 144 h, read-out: pI50 FB1.
Series [2] relates to Gibberella zeae. Particulars: in vivo.
The subject of series [3] is Fusarium proliferatum. The experiment in a line: microbe, parasite or virus in culture. The format is cell-based. The conditions noted are these: 144 h, read-out: pI50 Wachstum.
Series [4] in a line: physchem. Particulars: pH 2.7.
In series [5] the test system is Alternaria solani. The experiment in a line: Alternaria test (tomato) / protective. In kind it is in vivo. The conditions noted are these: 168 h, 500 ppm.
The subject of series [6] is Cochliobolus miyabeanus. The experiment in a line: Cochliobolus test (rice) / protective. The format is in vivo. The conditions noted are these: 250ppm active compound, evaluation 4 days after inoculation.
Series [7] relates to Puccinia recondita. Description: Puccinia test (wheat) / protective. The format is in vivo. The conditions noted are these: 500 ppm.
For series [8], the system named is Pyricularia oryzae. In kind it is in vivo. Particulars: 250ppm active compound; rice, protective; evaluation 7 days after inoculation.
Series [9] deals with Botrytis cinerea. In kind it is in vivo. The conditions noted are these: 48 h, 250 ppm. The text has this:
Lösungsmittel: 24,5 Gewichtsteile Aceton 24,5 Gewichtsteile Dimethylacetamid Emulgator : 1 Gewichtsteil Alkyl-Aryl-Polyglykolether Zur […] und Emulgator und verdünnt das Konzentrat mit Wasser auf die gewünschte Konzentration. Zur Prüfung auf protektive Wirksamkeit werden junge Pflanzen mit der Wirkstoffzubereitung in der angegebenen Aufwandmenge besprüht. Nach Antrocknen des Spritzbelages werden auf jedes Blatt 2 […] Botrytis cinerea […]. Die inokulierten Pflanzen werden in einer abgedunkelten Kammer bei ca. 20°C und 100% relativer Luftfeuchtigkeit aufgestellt. 2 Tage nach der Inokulation wird die Größe der Befallsflecken auf den Blä[…]. Dabei bedeutet 0% ein Wirkungsgrad, der demjenigen der Kontrolle entspricht, während ein Wirkungsgrad von 100% bedeutet, daß kein Befall beobachtet wird.

pIC50: −log10 of the molar value.

In the case of `CNC(=O)Oc1cccc(Nc2ncc(Cl)c(NCC(F)(F)F)n2)c1` [Verbindung 34], the pIC50 was 5.00 in series [1] and less than 4.30 in [3]. The molecule further registered a Wirkungsgrad in series [2] of no less than 80%.
As for `N#CCc1cccc(Nc2ncc(Cl)c(NCC(F)F)n2)c1` [Verbindung 43], the chromatographic logP (commonly a lipophilicity value derived from retention on a column) in series [4] is 1.89. Moreover, the Wirkungsgrad in [5] is on record as no less than 70%; in series [6], no less than 80%; in [7], no less than 70%; in series [8], no less than 80%; in [9], no less than 70%. Moreover, the pIC50 in series [1] is 5.90; in series [3], 5.20.
